From EP4653450A1 (priority 2023, dated 2024)
Where “and” joins values, the source holds several entries; their conditions need not be identical. Equal entries are not always repeated.

Key:
SARS-CoV-2 Delta strain = conditions: mouse, in vivo
[1] = system: 47 safety-related targets
From the text: For 78 tests related to 47 safe targets, the experimental methods used included: cAMP assay, calcium flux assay, hormone nuclear receptor assay, kinase binding assay, enzyme activity assay, neurotransmitter transporter assay, ion channel assay, and transporter assay.

[2] = cynomolgus monkey, in vivo
[3] = system: SARS-CoV-2 Delta strain (B.1.617.2); test: microbe, parasite or virus in culture; conditions: Severe acute respiratory syndrome coronavirus 2, Vero C1008
[4] = system: SARS-CoV-2 Omicron strain (B.1.1.529); test: microbe, parasite or virus in culture; conditions: Severe acute respiratory syndrome coronavirus 2, Vero C1008

Method for human plasma protein: Human plasma was purchased from BioIVT, anticoagulated with EDTA K2, and stored at -80 °C. The 96-well equilibrium dialysis plate was purchased from HTDialysis LLC. The equilibrium dialysis membrane was purchased from Gales Ferry.
The alkaline solution was titrated with the acidic solution until the pH value was 7.4, and the buffer could be stored at 4 °C for 7 days.
The dialysis membrane was soaked in ultrapure water for 60 min to separate the membrane into two pieces, then soaked with 20% ethanol for 20 min, and finally soaked with dialysis buffer for 20 min.
The frozen plasma was quickly thawed at room temperature.
The plasma was then centrifuged at 4 °C for 10 min at a centrifugal force of 3,220 g to remove clots, and the supernatant was collected into a new centrifuge tube. The pH of the plasma was measured and recorded.
A 10 mM DMSO stock solution of the test substance was prepared. 2 µL of the stock solution (10 mM) was diluted with 98 µL of DMSO to give a working solution (200 µM). […]
50 µL of blank plasma was added to the phosphate-buffered saline sample. […] The mixture was well mixed, and the sample was analyzed using liquid chromatography-mass spectrometry.
All calculations were performed by Microsoft Excel. The peak areas of the test substance on the buffer side and the plasma side were determined. […]

For `CC(C)(C)C(NC(=O)C(F)(F)F)C(=O)N1CC2(CC1C(=O)NC(C#N)CC1CCNC1=O)SCCS2` (stereo not shown) [Compound of formula (I)], the “Brain tissue (log10 copies/mg) Day 2” value (SARS-CoV-2 Delta strain) was 1.04±0.24 log10 copies/mg and 0.77±0.20 log10 copies/mg, the body weight (SARS-CoV-2 Delta strain) was “not significantly reduced” and the “effect on viral titer in the lungs” value (SARS-CoV-2 Delta strain) was “sustained inhibitory effect”. For the same compound, the “histopathological analysis of the lungs” value (SARS-CoV-2 Delta strain) was “significantly ameliorated lung damage”, the “reduction of viral copy number in the lungs” value (SARS-CoV-2 Delta strain) was 2.4 log10 copies/g and the “reduction of viral titer in the lungs (plaque assay)” value (SARS-CoV-2 Delta strain) was “more than 3 log10 PFU/g”. For the same compound, the “viral titer in the lungs (plaque assay)” value (SARS-CoV-2 Delta strain) was “the titer was not detected”, the “virus titer in the brains” value (SARS-CoV-2 Delta strain) was “no virus titer was detected” and the EC50 [1] was greater than 100000 nM. For the same compound, the “Free rate (F%) Replicate 1” value (human plasma protein) was 48.71%, the “Free rate (F%) Replicate 2” value (human plasma protein) was 44.55% and the arrhythmia [2] was “no test sample-related arrhythmia was observed”. For the same compound, the cardiovascular system changes [2] was “no test sample-related cardiovascular system changes were observed”, the “changes in ECG parameters or blood pressure” value [2] was “no test sample-related changes in ECG parameters or blood pressure were observed” and the IC50 [3] was 40 nM. The IC50 [4] was 120 nM.
